Test results reported in patent publication US9877918B2, “Long-lasting controlled-release liposome composition and method for producing same” (TERUMO KABUSHIKI KAISHA, priority 2011, dated 2018).
Structures can show the parent of a compound that is named as a salt.

Assay: Bupivacaine hydrochloride retention in the administration site after subcutaneous administration
Format: in vivo
Details: rat, SC 3.5 mg/kg, four hours after the administration
Protocol: (6) Concentration of Bupivacaine Hydrochloride in Tissue (mg/mL): Sampled tissue was treated, and, for a supernatant obtained finally by centrifugation, absorbance at 210 nm was determined by high performance liquid chromatography using a UV-visible absorptiometer, to thereby measure the concentration of bupivacaine hydrochloride in the tissue.
The bupivacaine hydrochloride liposome preparation prepared in Preparation Example 16 and bupivacaine hydrochloride used alone were subjected to a pharmacokinetic test. The liposome preparation and bupivacaine hydrochloride used alone were administered subcutaneously into a back part of a rat in respective doses as set forth in Table 11 while the doses are set as the amount of bupivacaine hydrochloride. After the lapse of 1, 24, 72, 120, and 168 hours from the administration of the bupivacaine hydrochloride liposome composition, and after the lapse of 0.5, 4, and 24 hours from the administration of bupivacaine hydrochloride used alone, a subcutaneous tissue of the back part in the administration site was sampled and subjected to a homogenizing treatment. […]

CCCCN1CCCCC1C(=O)Nc1c(C)cccc1C (stereo not shown) [bupivacaine hydrochloride used alone, Bupivacaine Hydrochloride]
retention rate in the administration site: below 1%
